In patent publication US20260184712A1, “Heterocyclic Compounds as ENT Inhibitors and Compounds for Use in the Treatment of Cancers” (iTeos Belgium SA, priority 2022, published 2026):
pIC50: −log10 of the molar value.

Assays:
human ENT1 = target: T1, human ENT1 (Homo sapiens, UniProt Q99808); test: ENT1 binding assay (competition with Sahenta-DY647 on JAR cells); settings: competition with SAHENTA-DY647 binding; IC50 categorized; read-out: Binding Assay IC50
T1 construct: JAR cells expressing ENT1 were purchased from ATCC; host or cells: JAR cells
T1 sequence (Q99808 1-456): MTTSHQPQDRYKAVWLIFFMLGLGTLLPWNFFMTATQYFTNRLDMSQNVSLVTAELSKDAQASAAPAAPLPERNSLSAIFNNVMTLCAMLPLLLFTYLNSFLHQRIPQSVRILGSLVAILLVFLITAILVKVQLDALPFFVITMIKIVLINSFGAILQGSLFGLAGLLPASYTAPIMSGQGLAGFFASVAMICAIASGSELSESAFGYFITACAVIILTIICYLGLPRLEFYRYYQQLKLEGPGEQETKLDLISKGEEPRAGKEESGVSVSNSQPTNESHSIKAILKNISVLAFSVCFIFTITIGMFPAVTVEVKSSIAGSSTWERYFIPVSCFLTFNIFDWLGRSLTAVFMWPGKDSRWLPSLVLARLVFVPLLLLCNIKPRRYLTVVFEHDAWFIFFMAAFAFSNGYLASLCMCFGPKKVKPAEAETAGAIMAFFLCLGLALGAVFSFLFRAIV
Summary of the method: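 Fluorescent-tracer displacement: compound incubated with JAR cells 30 min, 4 °C, before Sahenta-DY647 (100 nM) for another 30 min, 4 °C, in Hepes-buffered HBSS with 0.1% BSA. Bound tracer read at 670 nm after washes; IC50 from four-parameter fit, reported as mean of pIC50 values.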

[1] = system: stimulated primary human T cells; test: T cell proliferation assay, Condition A (X-VIVO15); format: cell-based; settings: Homo sapiens, T-cell, 96 h; Condition A: X-VIVO15 medium; anti-CD3/anti-CD28 beads, ATP, 4 days; CFSE-lo T cells
Protocol: (§1) The goal of this study was to determine the potency of ENT1 inhibitors by measuring the rescued proliferation of stimulated primary human T cells incubated in the presence of 100 uM Adenosine triphosphate (ATP), in baseline conditions (condition A) or in the presence of various proteins known to bind small molecules (condition B).
(§2) Venous blood from healthy volunteers, all of whom signed an informed consent approved by the Ethics Committee (FOR—UIC—BV-050-01-01 ICF_HBS_HD Version 5.0), was obtained by ImmuneHealth (Centre Hospitalier Universitaire Tivoli, La Louviere, Belgium). Mononuclear cells were collected by density gradient centrifugation, using SepMate-50 tubes (StemCell Technologies, Grenoble, France) and Lymphoprep (Stemcell Technologies) according to the manufacturer's instructions. CD3+ T cells were isolated by immunomagnetic negative selection, using the EasySep Human T Cell Isolation Kit (StemCell Technologies) as per the manufacturer's instructions. CD3+ T cells were stored in heat inactivated FBS (hiFBS; Gibco, ThermoFisher Scientific, Merelbeke, Belgium) and 10% DMSO in liquid nitrogen.
(§3) Purified human CD3+ T cells were thawed and washed once with RPMI1640 medium, UltraGlutamine (Lonza, Verviers, Belgium) containing 10% hiFBS. Cells were resuspended in PBS containing 10% hiFBS at 1×10^7 cells/ml. One volume of cells was combined with a matching volume of 2 μM CFSE solution in PBS, mixed well by pipetting, and incubated at room temperature for 5 minutes under rotation and protected from light. Excess CFSE was quenched by addition of PBS containing 10% hiFBS, and the cells were centrifuged (300×rcf, 7 minutes) and resuspended in X-VIVO15. Cells were again centrifuged and resuspended in X-VIVO15 for counting.
(§4) Cells were resuspended at 1.6×10^6 cells/mL in X-VIVO15 medium (Condition A) or X-VIVO15 medium containing 4% (v/v) HSA (Sigma-Aldrich, Diegem, Belgium) and 0.2% (v/v) ai-Acid Glycoprotein (Sigma-Aldrich, Diegem, Belgium) (Condition B).
(§5) […] of cell suspension (2×10^4 cells) was added to wells of sterile flat-bottom 384-well plates. Cells were activated by adding […] of anti-CD3 anti-CD28 coated microbeads (Dynabeads human T-activator CD3/CD28; Life Technologies, Paisley, UK) suspended in X-VIVO15 medium or X-VIVO15 medium containing 4% (v/v) HSA and 0.2% (v/v) ai-Acid Glycoprotein at a ratio of one microbead per two cells. Serial dilutions of the ENT1 inhibitors were conducted in X-VIVO15 medium and […] of the diluent was added to the wells. Cells were mixed by pipetting up and down and pre-incubated for 30 minutes in a 37° C. humidified tissue culture incubator with 5% CO2. After pre-incubation, cells were cultured in the presence or absence of ATP (Sigma-Aldrich) at a final concentration of […]. The final well volume was 50 μl in all cases. Experiments were performed in biological duplicates. Cells were mixed by pipetting up and down and incubated for 4 days in a 37° C. humidified tissue culture incubator with 5% CO2.
(§6) Samples were run on a BD LSR Fortessa FACS machine (BD FACSDiva Software v9.0.1). Data were analyzed using FlowJo (BD, v10.7.1). T cell proliferation was determined by measuring the frequency of ‘CFSE^lo’ (i.e. CFSE-diluted).
(§7) T cell proliferation data were analyzed using FlowJo software (Version 10.6.2). Dead cells and cellular debris were excluded on the basis of forward and side scatter profile and singlet cells were selected for further analysis.
(§8) T cell proliferation was determined based on the percent CFSE^lo total T cells for each condition. The data were plotted on the y-axis against log molar (M) concentration of ENT1 inhibitors on the x-axis in GraphPad Prism (version 9.0.0). IC50 and IC90 values were generated with the ‘log(agonist) vs. response—Find ECanything(F))’ function with F constrained to 50 or 90, respectively. pICF values were generated by taking the −logECF values.

[2] = system: stimulated primary human T cells; test: T cell proliferation assay, Condition B (X-VIVO15, 2% HSA and 0.1% AAG); format: cell-based; settings: Homo sapiens, T-cell, 96 h; Condition B: X-VIVO15 medium containing HSA and α1-Acid Glycoprotein; anti-CD3/anti-CD28 beads, ATP, 4 days; CFSE-lo T cells
Protocol: as §1
Condition B: X-VIVO15, 2% Human Serum Albumin (HSA) and 0.1% α-1-Acid Glycoprotein (AAG)
as §2, §3, §4, §5, §6, §7, §8

Structure (SMILES)	pIC50 (human ENT1)	pIC50 [1]	pIC50 [2]
NC(=O)COC[C@H]1O[C@@H](n2cnc3c(OCCc4ccc([N+](=O)[O-])cc4)ncnc32)[C@H](O)[C@@H]1O [Compound 199]	6.30 to 7.70	6.30 to 7.70	< 6.30
C[C@H]1O[C@@H](n2c(NCCC3CCN(C)CC3)nc3c(OCc4ccc([N+](=O)[O-])cc4)ncnc32)[C@H](O)[C@@H]1O [Compound 34]	6.30 to 7.70	7.70 to 9.00	6.30 to 7.70
C[C@H]1O[C@@H](n2cnc3c(OCc4cc(F)c(F)c(F)c4)ncnc32)[C@H](O)[C@@H]1O [Compound 200]	6.30 to 7.70	7.70 to 9.00	< 6.30
Cc1cc(COc2ncnc3c2ncn3[C@@H]2O[C@H](C)[C@@H](O)[C@H]2O)ccc1[N+](=O)[O-] [Compound 193]	6.30 to 7.70	6.30 to 7.70	< 6.30
C[C@H]1O[C@@H](n2c(NCC3CCOC3)nc3c(OCc4ccc(C#N)cc4)ncnc32)[C@H](O)[C@@H]1O (stereo partly drawn) [Compound 108]	7.70 to 9.00	7.70 to 9.00	6.30 to 7.70
OCCOC[C@H]1O[C@@H](n2cnc3c(OCc4ccc(OC(F)F)cc4)nc(Cl)nc32)[C@H](O)[C@@H]1O [Compound 162]	7.70 to 9.00	7.70 to 9.00	6.30 to 7.70
C[C@H]1O[C@@H](n2cnc3c(/C=C/c4ccc([N+](=O)[O-])cc4)ncnc32)[C@H](O)[C@@H]1O [Compound 157]	7.70 to 9.00	> 9.00	6.30 to 7.70
C[C@H]1O[C@@H](n2cnc3c(OCc4ccc(C#N)c(F)c4)ncnc32)[C@H](O)[C@@H]1O [Compound 174]	6.30 to 7.70	7.70 to 9.00	< 6.30
C[C@H]1O[C@H](n2c(NCc3ccccc3)nc3c(OCc4ccc(OC(F)F)cc4)ncnc32)[C@H](O)[C@@H]1O [Compound 8]	7.70 to 9.00	> 9.00	6.30 to 7.70
CC(=O)NC[C@H]1O[C@@H](n2cnc3c(SCc4ccc([N+](=O)[O-])cc4)ncnc32)[C@H](O)[C@@H]1O [Compound 189]	6.30 to 7.70	7.70 to 9.00	< 6.30
C[C@H]1O[C@@H](n2cnc3c(SCc4ccc(C#N)cc4)ncnc32)[C@H](O)[C@@H]1O [Compound 165]	6.30 to 7.70	7.70 to 9.00	< 6.30
C[C@H]1O[C@@H](n2cnc3c(SCc4ccc(OC(F)F)cc4)ncnc32)[C@H](O)[C@@H]1O [Compound 176]	6.30 to 7.70	7.70 to 9.00	< 6.30
C[C@H]1O[C@@H](n2cnc3c(OCCc4ccc(C#N)nn4)ncnc32)[C@H](O)[C@@H]1O [Compound 188]	6.30 to 7.70	7.70 to 9.00	< 6.30
Cc1nc(-c2ccc(CSc3ncnc4c3ncn4[C@@H]3O[C@H](C)[C@@H](O)[C@H]3O)cc2)no1 [Compound 186]	6.30 to 7.70	7.70 to 9.00	< 6.30
O=[N+]([O-])c1ccc(CCOc2ncnc3c2ncn3[C@@H]2O[C@H](COCCO)[C@@H](O)[C@H]2O)cc1 [Compound 203]	6.30 to 7.70	7.70 to 9.00	< 6.30
COC(=O)[C@H]1O[C@@H](n2cnc3c(SCc4ccc([N+](=O)[O-])cc4)ncnc32)[C@H](O)[C@@H]1O [Compound 152]	7.70 to 9.00	< 6.30	< 6.30

Now from value to molecule, other results behind:

pIC50 (human ENT1)	Structure (SMILES)	pIC50 [1]	pIC50 [2]
> 9.00	C[C@H]1O[C@@H](n2c(NC3CCCC3)nc3c(OCc4ccc(OC(F)F)nc4)ncnc32)[C@H](O)[C@@H]1O [Compound 14]	> 9.00	6.30 to 7.70
7.70 to 9.00	C[C@H]1O[C@@H](n2c(Nc3cnn(C)c3)nc3c(OCc4ccc([N+](=O)[O-])cc4)ncnc32)[C@H](O)[C@@H]1O [Compound 17]	7.70 to 9.00	6.30 to 7.70
7.70 to 9.00	O=[N+]([O-])c1ccc(CSc2ncnc3c2ncn3[C@@H]2O[C@H](CF)[C@@H](O)[C@H]2O)cc1 [Compound 159]	7.70 to 9.00	< 6.30
7.70 to 9.00	C[C@H]1O[C@@H](n2c(NCC(F)(F)F)nc3c(OCc4ccc([N+](=O)[O-])cc4)ncnc32)[C@H](O)[C@@H]1O [Compound 24]	7.70 to 9.00	6.30 to 7.70
7.70 to 9.00	CCNc1nc2c(N3CCc4ccc([N+](=O)[O-])cc4C3)ncnc2n1[C@@H]1O[C@H](C)[C@@H](O)[C@H]1O [Compound 150]	7.70 to 9.00	6.30 to 7.70
7.70 to 9.00	OC[C@H]1O[C@@H](n2cnc3c(OCc4ccc(OC(F)(F)F)cc4)nc(Cl)nc32)[C@H](O)[C@@H]1O [Compound 156]	7.70 to 9.00	6.30 to 7.70
7.70 to 9.00	C[C@H]1O[C@@H](n2c(OCc3ccccc3)nc3c(OCc4ccc([N+](=O)[O-])cc4)ncnc32)[C@H](O)[C@@H]1O [Compound 2]	> 9.00	6.30 to 7.70
7.70 to 9.00	C[C@H]1O[C@@H](n2c(NCCCO)nc3c(OCc4ccc([N+](=O)[O-])cc4)ncnc32)[C@H](O)[C@@H]1O [Compound 22]	7.70 to 9.00	6.30 to 7.70
> 9.00	CC(C)Nc1nc2c(OCc3ccc([N+](=O)[O-])cc3)ncnc2n1[C@@H]1O[C@H](C)[C@@H](O)[C@H]1O [Compound 25]	> 9.00	7.70 to 9.00
7.70 to 9.00	C[C@H]1O[C@@H](n2c(NC3CCCC3)nc3c(OCc4ccccc4)ncnc32)[C@H](O)[C@@H]1O [Compound 5]	7.70 to 9.00	6.30 to 7.70
> 9.00	C[C@H]1O[C@@H](n2c(N[C@@H]3CCC(F)(F)C3)nc3c(OCc4ccc(C#N)cc4)ncnc32)[C@H](O)[C@@H]1O [Compound 81]	> 9.00	6.30 to 7.70
> 9.00	C[C@H]1O[C@@H](n2c(NC3CCS(=O)(=O)CC3)nc3c(OCc4ccc(C#N)cc4)ncnc32)[C@H](O)[C@@H]1O [Compound 54]	> 9.00	6.30 to 7.70
> 9.00	C[C@H]1O[C@@H](n2c(NC3CCCC3)nc3c(OCc4ccc(C#N)cc4)ncnc32)[C@H](O)[C@@H]1O [Compound 12]	> 9.00	6.30 to 7.70
